Assay results published in paper PMC7714071, “Interaction of amyloid beta with humanin and acetylcholinesterase is modulated by ATP” (FEBS Open Bio, 2020).

System: Aβ in A549 cell-conditioned media
Assay: ELISA, oligomer versus total Aβ in A549 cell-conditioned media
Type: cell-based, human
Conditions: Fig. 8A
Method: Aβ ELISAs were carried out according to previous protocols for determining the oligomeric and monomeric concentrations of Aβ and as we recently reported. Briefly, total Aβ (monomers + oligomers) was measured by two‐site binding ELISAs using the capture 6E10 monoclonal antibody and 4G8‐conjugated biotin as the detection antibody, which recognizes a distinct epitope, then quantitated using streptavidin‐HRP.
Using the same samples, oligomerized Aβ was measured by a single‐site ELISA in which antibodies targeting the same primary sequence epitope were used for both capture (4G8) and detection (4G8‐biotin). Only oligomers are detected with this approach since the 4G8‐biotin antibody cannot bind to the captured monomer because the epitope is blocked by the 4G8 capture antibody. Therefore, only oligomeric or multimeric Aβ containing additional exposed 4G8 epitopes, not engaged by the capture antibody, are reported by the streptavidin–HRP. The amount of the monomer was then estimated as the difference between the concentration of total Aβ and the concentration of the oligomer.
Conditioned media were immunodepleted (ID) according to the methods previously described and our recently published report. Briefly, specific antibodies were bound to ELISA wells overnight (1 : 1000 dilution). The wells were then blocked and washed, then 300 μL of the conditioned medium (0.5 μg·μL^−1) treated as indicated, 72 h postserum starvation, was incubated with the antibodies bound to ELISA wells for 24 h. The ID media were then carefully removed and analyzed for the presence of the target protein or peptide by ELISA. The same amount of protein (3 µL of 600 µg·mL^−1 total protein) of each sample was analyzed in the experiments. Significant depletion (95–100%) was observed upon using each of the antibodies employed in this study.
Both epitopes recognized by the 6E10 and 4G8 antibodies have been previously shown to be exposed in Aβ aggregates. […] To determine the effect of ID of AChE or HN on this ratio in the absence or presence of added ATP, 0.2 × 10^5 cells per well were seeded in 96‐well plates in 10% FBS‐supplemented media. The next day, the cells were incubated in serum‐free medium for 72 h, then ID of AChE or HN as described in Materials and methods. The antibodies 6E10 or 4G8 were bound (1 : 1000 dilution) to ELISA wells (Fig. 8). The wells were blocked, and then incubated with 300 μL of the ID medium (0.5 μg·μL^−1). Biotin‐4G8 was then added and the signal processed as described in Materials and methods section. Fold change relative to controls using anti‐6E10 or anti‐4G8 antibodies incubated with 300 μL of the medium not incubated with cells was calculated.
Cells (0.2 × 10^5) were grown in 10% FBS‐supplemented media for 24 h. The cells were then incubated in serum‐free medium for 72 h without or with ATP and the media collected and ID from either HN or AChE as described in Materials and methods section. The antibodies 6E10 or 4G8 were bound (1 : 1000 dilution) to ELISA wells. The wells were blocked, and then incubated with 300 μL of the control and ID medium (0.5 μg·μL^−1). Biotin‐4G8 was then added and the signal processed as described in Materials and methods section. Fold change relative to controls using anti‐6E10 and anti‐4G8 antibodies and 300 μL of the medium not incubated with cells was calculated. Data were processed using the […] 8.4.3 software. The graphs summarize the results expressed as means ± SD of three separate experiments, each performed in triplicate. […]

Compound: Humanin [HN]
- oligomer, % of total Aβ remaining after HN ID (HN-immunodepleted A549 media (non-depleted ~ 63%)): ~ 86%
- total Aβ remaining after HN ID (HN-immunodepleted A549 media): ~ 63%

Compound: Nc1ncnc2c1ncn2[C@@H]1O[C@H](COP(=O)(O)OP(=O)(O)OP(=O)(O)O)[C@@H](O)[C@H]1O [ATP, Adenosine triphosphate]
- effect of ATP on relative amount of oligomer versus total Aβ (HN-immunodepleted A549 media, three experiments in triplicate): does not affect
- effect of ATP on relative amount of oligomer versus total Aβ (non-depleted, HN-ID or AChE-ID media): lack of effect
